Source: ChEMBL document CHEMBL5316345, “Discovery of the Potent and Selective MC4R Antagonist PF-07258669 for the Potential Treatment of Appetite Loss” (J Med Chem, 2023)
Activity calls are given as the source filed them. No cut-off for these calls is given here.

Experiments:
[1] = Passive apparent permeability in MDCKII-LE cells; type: ADME, cell-based, Canis lupus familiaris; settings: dog, MDCK; read-out: permeability (converted)
Cytochrome P450 3A = Cytochrome P450 3A (Homo sapiens, UniProt P08684+P20815+Q9HB55+P24462); experiment: Time dependent inhibition of CYP3A (unknown origin) at 10 uM relative to control; type: ADME, protein assay
[2] = Lipophilicity, logD of compound at pH 7.4 by shake flask method; type: physicochemical; settings: buffer
[3] = molecular target: T1, Melanocyte-stimulating hormone receptor (Homo sapiens, UniProt Q01726); experiment: Agonist activity at human MC1R expressed in CHO cells assessed as increase in alpha-MSH induced cAMP level measured for 60 mins; type: functional, cell-based
Target sequence in this assay (Q01726 whole entry, looked up): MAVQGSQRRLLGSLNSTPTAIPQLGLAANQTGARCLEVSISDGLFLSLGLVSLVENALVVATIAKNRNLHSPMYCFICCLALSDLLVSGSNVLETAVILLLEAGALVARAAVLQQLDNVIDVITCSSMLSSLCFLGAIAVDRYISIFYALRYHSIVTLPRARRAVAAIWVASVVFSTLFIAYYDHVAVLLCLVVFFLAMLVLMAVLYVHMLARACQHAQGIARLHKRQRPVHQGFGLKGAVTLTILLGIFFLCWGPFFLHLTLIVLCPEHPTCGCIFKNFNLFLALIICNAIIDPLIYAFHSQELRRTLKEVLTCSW

Melanocortin receptor 4 = Melanocortin receptor 4 (Rattus norvegicus, UniProt P70596); experiment: Displacement of [125I]-NDP-alpha-MSH from rat MC4R expressed in CHO cells by microbeta counter analysis; type: cell-based
[4] = molecular target: T1, Melanocyte-stimulating hormone receptor; experiment: Displacement of [125I]-NDP-alpha-MSH from human MC1R expressed in CHO cells measured for 2 hrs by microbeta counter analysis; type: cell-based
Target sequence in this assay (Q01726 whole entry): as the sequence (Q01726 whole entry, looked up) above

[5] = molecular target: Adrenocorticotropic hormone receptor (Homo sapiens) (UniProt Q01718); experiment: Agonist activity at human MC2R expressed in CHO cells assessed as increase in alpha-MSH induced cAMP level measured for 60 mins; type: functional, cell-based
[6] = Clearance in Wistar Han rat plasma at 1 mg/kg, iv measured at 0.033 to 24 hrs by LC-MS/MS analysis; type: ADME, organism-based; settings: time 0.033-24 hrs
[7] = Clearance in Beagle dog plasma at 1 mg/kg, iv measured at 0.033 to 24 hrs by LC-MS/MS analysis; type: ADME, organism-based, Canis lupus familiaris; settings: time 0.033-24 hrs
[8] = Volume of distribution at steady state in Beagle dog at 1 mg/kg, iv measured at 0.033 to 24 hrs by LC-MS/MS analysis; type: ADME, organism-based, Canis lupus familiaris; settings: in vivo, time 0.033-24 hrs, read-out: Vdss
[9] = Half life in Wistar Han rat at 1 mg/kg, iv measured at 0.033 to 24 hrs by LC-MS/MS analysis; type: ADME, organism-based; settings: in vivo, time 0.033-24 hrs
[10] = Half life in Wistar Han rat at 5 mg/kg, po measured at 0.083 to 24 hrs by LC-MS/MS analysis; type: ADME, organism-based; settings: in vivo, time 0.083-24 hrs
[11] = Half life in Beagle dog at 1 mg/kg, iv measured at 0.033 to 24 hrs by LC-MS/MS analysis; type: ADME, organism-based, Canis lupus familiaris; settings: in vivo, time 0.033-24 hrs
[12] = Half life in Beagle dog at 1 mg/kg, po measured at 0.25 to 24 hrs by LC-MS/MS analysis; type: ADME, organism-based, Canis lupus familiaris; settings: in vivo, time 0.25-24 hrs
[13] = Cmax in Beagle dog at 1 mg/kg, po measured at 0.25 to 24 hrs by LC-MS/MS analysis; type: ADME, organism-based, Canis lupus familiaris; set-up: dose 1 mg/kg, time 0.25-24 hrs, route po; settings: in vivo
[14] = AUC (0 to infinity) in Beagle dog at 1 mg/kg, iv measured at 0.033 to 24 hrs by LC-MS/MS analysis; type: ADME, organism-based, Canis lupus familiaris; set-up: time upper 24 hrs, dose 1 mg/kg, time lower 0.033 hrs, route iv; settings: in vivo
[15] = AUC (0 to infinity) in Beagle dog at 1 mg/kg, po measured at 0.25 to 24 hrs by LC-MS/MS analysis; type: ADME, organism-based, Canis lupus familiaris; set-up: time upper 24 hrs, time lower 0.25 hrs, dose 1 mg/kg, route po; settings: in vivo
[16] = AUClast in Beagle dog at 1 mg/kg, iv measured at 0.033 to 24 hrs by LC-MS/MS analysis; type: ADME, organism-based, Canis lupus familiaris; set-up: dose 1 mg/kg, time 0.033-24 hrs, route iv; settings: in vivo
[17] = AUClast in Beagle dog at 1 mg/kg, po measured at 0.25 to 24 hrs by LC-MS/MS analysis; type: ADME, organism-based, Canis lupus familiaris; set-up: time upper 24 hrs, dose 1 mg/kg, time lower 0.25 hrs, route po; settings: in vivo
[18] = Oral bioavailability in Beagle dog at 1 mg/kg measured at 0.25 to 24 hrs by LC-MS/MS analysis; type: ADME, organism-based, Canis lupus familiaris; settings: in vivo, time 0.25-24 hrs
Mus musculus [19] = experiment: Effect on body weight in anorexia/cachexia mouse model assessed as increase in food intake administered twice a day for 20 days and measured at 1 to 21 days; type: functional, organism-based; settings: dose 0.3-10 mg/kg, time 1-21 day
Mus musculus [20] = experiment: Effect on body weight in anorexia/cachexia mouse model assessed as cumulative body weight gain at 0.3 mg/kg, po administered twice a day for 20 days and measured at 1 to 21 days; type: functional; settings: time 1-21 day
Mus musculus [21] = experiment: Effect on body weight in anorexia/cachexia mouse model assessed as cumulative body weight gain at 1 mg/kg, po administered twice a day for 20 days and measured at 1 to 21 days; type: functional; settings: time 1-21 day
Mus musculus [22] = experiment: Effect on body weight in anorexia/cachexia mouse model assessed as cumulative body weight gain at 3 mg/kg, po administered twice a day for 20 days and measured at 1 to 21 days; type: functional; settings: time 1-21 day
Mus musculus [23] = experiment: Effect on body weight in anorexia/cachexia mouse model assessed as cumulative body weight gain at 10 mg/kg, po administered twice a day for 20 days and measured at 1 to 21 days; type: functional; settings: time 1-21 day
Mus musculus [24] = experiment: Effect on body weight in anorexia/cachexia mouse model assessed as reduction in cumulative food intake at 0.3 mg/kg, po administered twice a day for 20 days and measured at 1 to 21 days; type: functional; set-up: scale not given: the % may be the effect or the level left; settings: time 1-21 day
Mus musculus [25] = experiment: Effect on body weight in anorexia/cachexia mouse model assessed as reduction in cumulative food intake at 1 mg/kg, po administered twice a day for 20 days and measured at 1 to 21 days; type: functional; set-up: scale not given: the % may be the effect or the level left; settings: time 1-21 day
Mus musculus [26] = experiment: Effect on body weight in anorexia/cachexia mouse model assessed as reduction in cumulative food intake at 3 mg/kg, po administered twice a day for 20 days and measured at 1 to 21 days; type: functional; set-up: scale not given: the % may be the effect or the level left; settings: time 20 day
Mus musculus [27] = experiment: Effect on body weight in anorexia/cachexia mouse model assessed as reduction in cumulative food intake at 10 mg/kg, po administered twice a day for 20 days and measured at 1 to 21 days; type: functional; set-up: scale not given: the % may be the effect or the level left; settings: time 20 day
[28] = molecular target: Dual specificity calcium/calmodulin-dependent 3',5'-cyclic nucleotide phosphodiesterase 1B (Homo sapiens, UniProt Q01064); experiment: Inhibition of human PDE1B1
[29] = molecular target: cGMP-inhibited 3',5'-cyclic phosphodiesterase 3A (Homo sapiens, UniProt Q14432); experiment: Inhibition of human PDE3A
[30] = molecular target: 3',5'-cyclic-AMP phosphodiesterase 4D (Homo sapiens, UniProt Q08499); experiment: Inhibition of human PDE4D3
[31] = molecular target: cGMP-specific 3',5'-cyclic phosphodiesterase (Homo sapiens, UniProt O76074); experiment: Inhibition of human PDE5A1
Phosphodiesterase 6 = experiment: Inhibition of human PDE6; type: protein assay
[32] = molecular target: High affinity cAMP-specific and IBMX-insensitive 3',5'-cyclic phosphodiesterase 8B (Homo sapiens, UniProt O95263); experiment: Inhibition of human PDE8B
[33] = molecular target: High affinity cGMP-specific 3',5'-cyclic phosphodiesterase 9A (Homo sapiens, UniProt O76083); experiment: Inhibition of human PDE9A1
[34] = molecular target: cAMP and cAMP-inhibited cGMP 3',5'-cyclic phosphodiesterase 10A (Homo sapiens, UniProt Q9Y233); experiment: Inhibition of human PDE10A1
[35] = molecular target: Dual 3',5'-cyclic-AMP and -GMP phosphodiesterase 11A (Homo sapiens, UniProt Q9HCR9); experiment: Inhibition of human PDE11A4
[36] = molecular target: Sodium channel protein type 5 subunit alpha (Homo sapiens, UniProt Q14524); experiment: Inhibition of recombinant human Nav1.5 expressed in CHO cells by whole cell voltage clamp electrophysiology recording; type: cell-based
[37] = molecular target: Voltage-dependent L-type calcium channel subunit alpha-1C (Homo sapiens, UniProt Q13936); experiment: Inhibition of Cav1.2 (unknown origin)

Dual specificity calcium/calmodulin-dependent 3',5'-cyclic nucleotide phosphodiesterase 1B, sequence (Q01064 whole entry): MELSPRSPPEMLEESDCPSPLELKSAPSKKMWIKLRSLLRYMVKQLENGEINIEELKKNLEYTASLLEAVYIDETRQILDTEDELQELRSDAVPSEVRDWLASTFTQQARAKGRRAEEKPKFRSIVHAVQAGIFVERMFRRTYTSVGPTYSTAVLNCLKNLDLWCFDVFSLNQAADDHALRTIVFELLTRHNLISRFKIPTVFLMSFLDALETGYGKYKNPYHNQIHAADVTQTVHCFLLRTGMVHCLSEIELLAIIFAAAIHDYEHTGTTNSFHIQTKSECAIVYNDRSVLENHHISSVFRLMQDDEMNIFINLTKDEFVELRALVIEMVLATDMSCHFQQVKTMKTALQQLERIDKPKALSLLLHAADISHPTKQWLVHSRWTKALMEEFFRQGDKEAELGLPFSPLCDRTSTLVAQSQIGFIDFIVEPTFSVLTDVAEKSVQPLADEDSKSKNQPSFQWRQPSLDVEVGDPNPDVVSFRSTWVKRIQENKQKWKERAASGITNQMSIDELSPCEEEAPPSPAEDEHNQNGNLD
Adrenocorticotropic hormone receptor (Homo sapiens), sequence (Q01718 whole entry): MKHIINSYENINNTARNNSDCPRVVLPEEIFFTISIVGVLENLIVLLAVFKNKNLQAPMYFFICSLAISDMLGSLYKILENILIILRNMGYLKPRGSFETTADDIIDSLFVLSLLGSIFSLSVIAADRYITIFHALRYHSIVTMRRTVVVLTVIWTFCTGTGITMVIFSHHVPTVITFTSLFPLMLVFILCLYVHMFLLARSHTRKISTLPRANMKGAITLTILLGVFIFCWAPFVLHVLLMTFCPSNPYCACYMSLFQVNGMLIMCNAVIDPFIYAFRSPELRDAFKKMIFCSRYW
cAMP and cAMP-inhibited cGMP 3',5'-cyclic phosphodiesterase 10A, sequence (Q9Y233 whole entry): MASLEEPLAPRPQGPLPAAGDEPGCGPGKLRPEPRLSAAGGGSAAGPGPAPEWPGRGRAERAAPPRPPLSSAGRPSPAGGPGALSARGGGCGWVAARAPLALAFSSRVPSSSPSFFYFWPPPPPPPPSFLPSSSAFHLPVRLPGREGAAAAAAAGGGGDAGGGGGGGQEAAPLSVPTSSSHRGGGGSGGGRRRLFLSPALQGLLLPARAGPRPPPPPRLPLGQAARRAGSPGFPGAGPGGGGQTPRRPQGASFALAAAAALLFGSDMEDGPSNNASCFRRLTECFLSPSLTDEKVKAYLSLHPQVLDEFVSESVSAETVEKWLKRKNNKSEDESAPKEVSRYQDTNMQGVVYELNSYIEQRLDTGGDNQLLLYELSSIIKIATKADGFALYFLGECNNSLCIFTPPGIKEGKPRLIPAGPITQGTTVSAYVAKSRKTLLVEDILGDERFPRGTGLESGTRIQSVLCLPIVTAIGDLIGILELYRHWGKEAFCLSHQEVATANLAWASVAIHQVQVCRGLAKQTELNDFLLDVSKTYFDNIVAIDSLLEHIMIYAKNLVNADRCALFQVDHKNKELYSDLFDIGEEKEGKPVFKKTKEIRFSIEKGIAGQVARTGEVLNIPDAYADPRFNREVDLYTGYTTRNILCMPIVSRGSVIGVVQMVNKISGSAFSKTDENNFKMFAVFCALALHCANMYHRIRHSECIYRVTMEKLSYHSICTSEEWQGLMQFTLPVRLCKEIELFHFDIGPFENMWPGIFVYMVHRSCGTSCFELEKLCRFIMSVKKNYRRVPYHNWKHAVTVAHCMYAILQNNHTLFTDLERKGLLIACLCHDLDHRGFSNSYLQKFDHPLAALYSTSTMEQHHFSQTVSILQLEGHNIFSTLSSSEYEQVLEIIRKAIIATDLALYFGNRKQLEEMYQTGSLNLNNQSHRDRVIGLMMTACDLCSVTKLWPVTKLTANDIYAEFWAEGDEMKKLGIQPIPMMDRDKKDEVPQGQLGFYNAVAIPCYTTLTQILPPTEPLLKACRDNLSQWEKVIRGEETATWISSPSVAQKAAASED
Melanocortin receptor 4, sequence (P70596 whole entry): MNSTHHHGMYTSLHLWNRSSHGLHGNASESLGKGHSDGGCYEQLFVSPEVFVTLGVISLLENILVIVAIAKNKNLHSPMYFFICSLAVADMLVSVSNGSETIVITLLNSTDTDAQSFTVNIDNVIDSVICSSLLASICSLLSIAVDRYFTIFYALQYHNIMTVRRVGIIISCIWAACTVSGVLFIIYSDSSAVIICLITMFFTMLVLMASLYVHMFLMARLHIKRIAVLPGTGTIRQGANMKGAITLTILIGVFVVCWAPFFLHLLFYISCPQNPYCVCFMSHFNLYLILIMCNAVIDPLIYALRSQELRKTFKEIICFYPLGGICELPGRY
Dual 3',5'-cyclic-AMP and -GMP phosphodiesterase 11A, sequence (Q9HCR9 whole entry): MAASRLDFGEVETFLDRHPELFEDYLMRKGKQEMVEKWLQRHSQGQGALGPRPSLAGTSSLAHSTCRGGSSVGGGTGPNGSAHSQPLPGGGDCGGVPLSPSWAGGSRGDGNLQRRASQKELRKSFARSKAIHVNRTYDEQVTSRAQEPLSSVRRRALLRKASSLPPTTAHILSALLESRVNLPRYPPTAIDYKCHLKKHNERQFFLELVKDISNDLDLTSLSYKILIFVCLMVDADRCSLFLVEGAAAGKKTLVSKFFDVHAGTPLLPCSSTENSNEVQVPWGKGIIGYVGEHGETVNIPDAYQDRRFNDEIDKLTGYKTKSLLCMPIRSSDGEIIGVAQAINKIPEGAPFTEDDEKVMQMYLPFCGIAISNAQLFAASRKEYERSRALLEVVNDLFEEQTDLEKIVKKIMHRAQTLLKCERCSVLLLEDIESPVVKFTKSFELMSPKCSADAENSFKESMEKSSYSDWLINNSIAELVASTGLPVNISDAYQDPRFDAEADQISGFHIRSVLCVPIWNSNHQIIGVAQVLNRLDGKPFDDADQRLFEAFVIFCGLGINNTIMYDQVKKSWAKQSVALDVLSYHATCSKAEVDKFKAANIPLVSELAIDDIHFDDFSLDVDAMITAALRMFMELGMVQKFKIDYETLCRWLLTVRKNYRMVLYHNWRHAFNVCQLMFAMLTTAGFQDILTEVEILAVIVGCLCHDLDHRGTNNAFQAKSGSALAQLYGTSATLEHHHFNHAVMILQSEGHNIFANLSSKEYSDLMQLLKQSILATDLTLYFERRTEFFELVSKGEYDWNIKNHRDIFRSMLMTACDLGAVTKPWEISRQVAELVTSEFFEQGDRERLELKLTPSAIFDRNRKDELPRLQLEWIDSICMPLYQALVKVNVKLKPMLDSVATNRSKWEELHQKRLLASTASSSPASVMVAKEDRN
cGMP-inhibited 3',5'-cyclic phosphodiesterase 3A, sequence (Q14432 whole entry): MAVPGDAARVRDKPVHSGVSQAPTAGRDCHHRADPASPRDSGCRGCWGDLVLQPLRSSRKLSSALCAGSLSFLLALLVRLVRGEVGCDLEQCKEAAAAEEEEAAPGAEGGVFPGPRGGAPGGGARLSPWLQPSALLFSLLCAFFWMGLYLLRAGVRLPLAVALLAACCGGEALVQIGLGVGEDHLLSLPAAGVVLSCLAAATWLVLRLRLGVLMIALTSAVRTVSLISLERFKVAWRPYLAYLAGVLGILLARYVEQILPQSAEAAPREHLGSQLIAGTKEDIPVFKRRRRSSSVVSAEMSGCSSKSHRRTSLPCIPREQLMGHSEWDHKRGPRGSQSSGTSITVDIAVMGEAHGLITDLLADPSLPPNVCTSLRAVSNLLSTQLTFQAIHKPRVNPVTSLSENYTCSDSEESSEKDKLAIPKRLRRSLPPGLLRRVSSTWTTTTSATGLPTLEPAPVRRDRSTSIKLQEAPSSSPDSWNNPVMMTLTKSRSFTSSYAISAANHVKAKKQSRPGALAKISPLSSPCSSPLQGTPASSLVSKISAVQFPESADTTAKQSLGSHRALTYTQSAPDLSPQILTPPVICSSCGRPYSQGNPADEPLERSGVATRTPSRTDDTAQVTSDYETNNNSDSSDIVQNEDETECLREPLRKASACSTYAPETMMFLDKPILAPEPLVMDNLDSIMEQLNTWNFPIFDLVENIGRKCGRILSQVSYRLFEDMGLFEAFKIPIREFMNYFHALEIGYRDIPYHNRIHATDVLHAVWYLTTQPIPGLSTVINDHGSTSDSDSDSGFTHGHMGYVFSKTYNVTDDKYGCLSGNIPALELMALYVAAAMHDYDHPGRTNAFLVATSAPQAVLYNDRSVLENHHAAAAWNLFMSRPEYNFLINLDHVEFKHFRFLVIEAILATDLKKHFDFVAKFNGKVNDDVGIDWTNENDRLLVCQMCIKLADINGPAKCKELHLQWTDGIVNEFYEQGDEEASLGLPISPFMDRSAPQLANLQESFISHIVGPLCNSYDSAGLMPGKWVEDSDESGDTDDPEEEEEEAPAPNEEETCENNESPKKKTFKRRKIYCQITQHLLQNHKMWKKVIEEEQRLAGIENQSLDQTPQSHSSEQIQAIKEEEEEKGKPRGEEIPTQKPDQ

COc1cc([C@@H](C)C(=O)N2CC[C@@]3(COc4cc(-c5ncccn5)c(C)nc4N3)C2)c(F)cn1
Papp [1]: 0.467 ×10⁻⁶ cm/s
K (Cytochrome P450 3A): 0.09 min⁻¹
logD [2]: 2.6
Activity [3]: inactive
Ki (Melanocortin receptor 4): 0.00052 µM
Ki [4]: > 1.6 µM
Activity [5]: inactive
clearance [6]: 21 mL/min/kg
clearance [7]: 11 mL/min/kg
Vd [8]: 1.3 L/kg
half-life [9]: 1 h
half-life [10]: 0.98 h
half-life [11]: 2.3 h
half-life [12]: 3.6 h
Cmax [13]: 1470 ng/mL
AUC [14]: 1660 ng·h/mL
AUC [15]: 4610 ng·h/mL
AUC(0-t) [16]: 1640 ng·h/mL
AUC(0-t) [17]: 4580 ng·h/mL
F [18]: 93%
Activity (Mus musculus [19]): Dose-Dependent Effect
Activity (Mus musculus [20]): 2%
Activity (Mus musculus [21]): 5%
Activity (Mus musculus [22]): 9%
Activity (Mus musculus [23]): 22%
Activity (Mus musculus [24]): 23%
Activity (Mus musculus [25]): 26%
Activity (Mus musculus [26]): 40%
Activity (Mus musculus [27]): 111%
IC50 [28]: > 50 µM
IC50 [29]: > 50 µM
IC50 [30]: > 50 µM
IC50 [31]: > 50 µM
IC50 (Phosphodiesterase 6): > 50 µM
IC50 [32]: > 50 µM
IC50 [33]: > 50 µM
IC50 [34]: > 50 µM
IC50 [35]: > 50 µM
IC50 [36]: > 100 µM
IC50 [37]: > 100 µM
